Read-outs that look alike come from different tables or passages of the source.
Columns and labels:
[1] = format: in vitro ADME; conditions: for stability of samples at room temperature: 6 h; for storage of processed samples without change in precision and accuracy: 24 h; for long term stability of samples: 132 days
Procedure: For quantification of letrozole in dog and rabbit plasma a technique based on high performance liquid chromatography with fluorescence detector HPLC-FLD […] using a liquid-liquid extraction with […] as the organic solvent and resuspension for analysis in reverse phase with isocratic elution. Carvedilol was used as the internal standard and the process time was 8.5 min with a letrozole retention time of 7.8 min and applying wavelengths of 240 nm (λ excitation) and 315 nm (λ emission). The validated concentration interval was from 5 (LLOQ) to 500 ng/mL, that is with a lower limit of quantification or minimum quantifiable analyte concentration of the analytical technique of 5 ng/mL and a maximum validated concentration of 500 ng/mL. Calibration curves obtained were characterized with a correlation coefficient of over 0.99. Precision and intra-assay and inter-assay accuracy was less than 20% for the LLOQ and less than 15% for the other QCs, that is, of the other known concentration samples used as quality controls in conducting the analysis. The bioanalytical method was validated over three days and the results met the acceptance criteria described in the FDA guide: “Bioanalytical Method Validation”.
Processed samples could be stored in the sampler at 4° C. for 24 hours without noticing any change in the precision and accuracy of the analysis.

[2] = Letrozole particle size distribution by laser diffraction (Malvern Mastersizer 2000); format: physicochemical; conditions: % volume; suspended in water until obscuration of 9.41%
Procedure: If not otherwise specified, the particle size distribution was determined by light scattering technique using laser light diffraction in wet mode. It is known that particle size distribution results can be altered as a function of the material treatment such the use of high concentrate surfactant agents and/or strong force energies (vortex, sonication, etc). If nothing else is mentioned, drug is not treated and samples are prepared by direct addition to the tank under moderate stirring (2000-3500 rpm). The methodology applied on present invention to determine the drug particle size distribution mimics in a more faithfully way the behavior of the drug powder on the injectable formulation herein described than other methods which apply force energies to the sample and/or use high concentrate surfactant agents for preparing the samples in order to achieve high degrees of powder disaggregation that cannot be simulated during the manual reconstitution process of the formulation.
Letrozole particle size in formulation 2 was characterized by the technique of laser ray diffraction (Malvern Mastersizer 2000, suspended in water until obscuration of 9.41%) and had the following distribution (in % volume): d(0.1)=38.21 μm, d(0.5)=141.35 μm and d(0.9)=312.13 μm.

Which results are given for `N#Cc1ccc(C(c2ccc(C#N)cc2)n2cncn2)cc1` [Letrozole, 4,4′-(1,2,4-triazol-1-ylmethyl)dibenzonitrile]?
effect of cycles of freezing/thawing on stability ([1]; dog): did not affect the stability; stability of samples at room temperature ([1]; dog): up to 6 hours; storage of processed samples without change in precision and accuracy ([1]; dog): 24 h; long term stability of samples ([1]; dog): 132 days; effect of cycles of freezing/thawing on stability ([1]; rabbit): did not affect the stability; stability of samples at room temperature ([1]; rabbit): up to 6 hours; storage of processed samples without change in precision and accuracy ([1]; rabbit): 24 h; long term stability of samples ([1]; rabbit): 132 days; d(0.1) [2]: 38.21 μm; d(0.5) [2]: 141.35 μm; d(0.9) [2]: 312.13 μm
